Results taken from patent US20050031610A1, “CD44-related fragments, compositions and methods” (priority 2002, published 2005).
Entries after “also recorded” stand apart in the source; their conditions may differ.

Key:
γ-secretase [1] = assay: Accumulation of membrane-associated CD44 C-terminal fragments in CD44-transfected CHO cells (Western blot, anti-V5); format: cell-based; conditions: CHO cells transfected with CD44 C-terminal V5-tag, 16 hours
Experimental: FIG. 1. The accumulation of membrane-associated C-terminal derivatives of CD44 by a γ-secretase inhibitor. The CHO cells transfected with constructs encoding CD44 with C-terminal V5-tag were incubated in the presence of the indicated concentrations of γ-secretase inhibitor Compound E (Cpd. E) for 16 hours. Detergent lysates were analyzed by Western blot analyses (4-20% Tris-Glycine SDS-PAGE) using anti-V5 antibody.
When constructs encoding full-length CD44 with C-terminal V5 epitope tag were transiently expressed, full-length CD44 (˜85 kDa) was constitutively processed to generate membrane-associated C-terminal fragments with apparent molecular weights of ˜19 to 22 kDa (FIG. 1). First, experiments were performed to determine whether a γ-secretase inhibitor blocks the putative intramembrane cleavage of CD44 to cause an accumulation of CD44 similar to that observed for APP and ErbB4 (Lee, H.-J., Jung, K.-M., Huang, Y. Z., Bennett, L. B., Lee, J. S., Mei, L. and Kim, T.-W., Presenilin-dependent γ-secretase-like intramembrane cleavage of ErbB4. J. Biol. Chem., 277:6318-6329 (2002)).

γ-secretase [2] = assay: In vitro CD44-ICD generation using membrane fractions from CD44-transfected 293 cells; format: biochemical; design: dose or concentration left out as unconfirmed; conditions: membrane fractions from dW and dAsp cells, 37° C.
Experimental: FIG. 4. In vitro generation of the CD44 intracellular domain (CD44-ICD). Membrane fractions prepared from either dW or dAsp cells transfected with full-length CD44 were incubated at 37° C. for the indicated hours with or without Cpd E (1 mM) or MG132 (50 mM). After the incubation, both the pellet (A) and the supernatant (B) were analyzed by Western blot analyses […] using anti-V5 antibody.
The incubation of the cytosol-free membrane fractions from dW cells transfected with CD44 led to the generation of two fragments (T1 and T2) in the membrane fractions (FIG. 4A) and the release of V5-epitope-tagged CD44-ICD into the soluble fraction (FIG. 4B).

CD44 = assay: Ligand-induced CD44 cleavage / generation of CD44-ICD in CD44-transfected cells (Western blot, anti-V5); format: cell-based
Text: FIG. 5. (A) Schematic representations of truncated CD44 constructs and putative cleavage sites of CD44. Starting amino acid sequences of truncated (ΔE) or intracellular (ICD) CD44 constructs and predicated proteolytic cleavage sites are indicated by arrows. Full-length (FL) and all ICD constructs contain C-terminal V5 tag, whereas all ΔE constructs harbor N-terminal HA tag located immediately after the signal peptide in addition to the C-terminal V5 tag. (B) Expression of truncated CD44 constructs in HEK293 cells. The lysates from the cells transfected with indicated constructs were analyzed by Western blot analyses. The locations of precursor polypeptide encoded by each constructs as well as the cleavage products (e.g. S1, T1, and T2) are shown on the right side of each blot. The lysates from full-length CD44-transfected cells grown in the absence (FL) or presence (FL+hyaluronan) of hyaluronan are shown as controls.
FIG. 6. Ligand-induced generation of CD44-ICD. Cells were treated for 24 hours with solvent only (Control), hyaluronan, hyaluronan plus Cpd. E, phorbol ester TPA, and TPA plus hyaluronan, and the lysates were analyzed by Western blotting using anti-V5 antibody.
(§1) It has been previously reported that high molecular weight forms of hyaluronan (HA) induce cell growth arrest (Morrison et al., Genes and Development, 15, 968-980, 2001; Herrlich et al., Ann. NY Acad. Sci. 910, 106-118, 2000).

HEK293 cells = assay: Hyaluronan-mediated growth retardation, count of EGFP-positive CD44-transfected HEK293 cells; format: cell-based; conditions: 40 hour incubation
Experimental: FIG. 7. Effects of a γ-secretase inhibitor in hyaluronan-mediated growth retardation. HEK293 cells were transfected with constructs encoding both full-length CD44 and enhance green fluorescence protein (EGFP) in a single plasmid. Identical number of transfected cells were plated into multiple dishes and incubated with hyaluronan, hyaluronan plus Cpd. E, TPA, and TPA plus Cpd. E. After 40 hour incubation, the number of EGFP-positive cells were counted. Values represent the mean±s.d.
as §1

| Compound | accumulation of transgene-derived CD44 C-terminal fragments (γ-secretase [1]) | generation of T1 fragments (γ-secretase [2]) | inhibition of the HA-induced accumulation of S1 and T1 cleavage products (CD44; hyaluronan plus Compound E) | effect on T2 cleavage products (CD44; hyaluronan plus Cpd. E, 24 hours) | effect on the growth inhibition induced by HA (HEK293 cells; hyaluronan plus Cpd. E) | levels of S1 and T1 cleavage products (CD44; cells treated with high molecular weight forms of HA) | generation of CD44-ICD (CD44; cells treated with high molecular weight forms of HA, 24 hours) | generation of S1 and T2 cleavage (CD44; full-length CD44-transfected HEK293 cells, FL vs. FL+hyaluronan) | growth of cells transfected with CD44 (HEK293 cells; HEK293 cells, full-length CD44 and EGFP) |
| --- | --- | --- | --- | --- | --- | --- | --- | --- | --- |
| C[C@H](NC(=O)Cc1cc(F)cc(F)c1)C(=O)N[C@H]1N=C(c2ccccc2)c2ccccc2N(C)C1=O [Compound E] | led to the accumulation | not blocked | didn't inhibit | selectively affected | reverted the growth-inhibition | – | – | – | – |
| hyaluronan [HA] | – | – | – | – | – | elevated | led to the generation of CD44-ICD | increased generation | induced growth inhibition; also recorded: led to an inhibition of cell proliferation |
